Reference: patent US10856562B2, “Flavor composition and edible compositions containing same” (MARS, INCORPORATED, priority 2013, dated 2020)
Entries after “also recorded” stand apart in the source; their conditions may differ. Square brackets hold non-standard residues; d marks the D form. Ends that are not written are not given here. pGlu = O=C1CC[C@@H](C(=O)O)N1

Legend:
[1] = system: panelists; test: Increased salt perception protocol: salt 5 reference (0.35% salt solution) re-tasted after expectoration of test sample; assay type: in vivo, human; settings: for Astringent, after-expectoration perception / Bitter, after-expectoration perception / Flinty/Mineral, after-expectoration perception / Metallic, after-expectoration perception / Numbing, after-expectoration perception / Salt, after-expectoration perception (mean salt perception after expectoration) / Sour, after-expectoration perception / Sweet, after-expectoration perception: salt 5 reference re-tasted, mean score
Text: 1. Each panelist tasted a salt reference (0.35% salt solution) with a reference salt intensity of 5.0 which provided a baseline for each panelist for salt intensity. 2. Each panelist tasted a test sample (0.1 ppb, 0.5 ppb, 1.0 ppb, 10.0 ppb or 40.0 ppb all in 0.2% NaCl solution). Only one sample was tasted per session. 3. Each panelist re-tasted the salt reference (5.0 intensity) and rated it for salt intensity as well as any other basic taste, chemical feeling factor, or aromatic perceived. Thus, any increased salt perception as a result of the test sample would be determined, as well as any other perceptions present. Attribute Perception Protocol • The panelists evaluated each sample using the following procedure • Descriptive Profiles (flavor and chemical feeling factors) of 5 levels of salt enhancing solutions • Individual data was collected for the flavor and chemical feeling factors of the product in-mouth • Increased Salt Perception Protocol • Each panelist tasted salt 5 reference (0.35% salt solution)—to ground themselves on salt intensity of 5.0. • Each panelist tasted the test sample (0.1 ppb, 0.5 ppb, 1.0 ppb, 10.0 ppb or 40.0/50.0 ppb all in 0.2% NaCl solution: only one per session) • Each panelist then re-tasted the salt 5 reference and rated it for salt intensity as well as any other basic taste, chemical feeling factor, or aromatic perceived. This captured any increased salt perception indicated by the test sample as well as any other perceptions present. • Return to Baseline Protocol • After evaluating the sample for salt & other perceptions, panelists re-tasted the salt 5 reference at 1 minute intervals until their perception of the salt 5 saltiness intensity had returned to 5.0. Each panelist recorded their salt intensity at each interval and took qualitative notes on other perceptions seen in aftertaste. Sample Preparation

[2] = system: panel of trained tasters; test: Saltiness of sodium-reduced pasta sauce with peptides, panel of trained tasters; assay type: in vivo, human; settings: 10 ppb of UE-30
Protocol: Food product compositions were prepared by admixing flavor composition peptide(s) of the present application with food compositions, wherein the level of sodium (NaCl) in the food product compositions was reduced. The level of sodium was reduced by 25%, 50% or 75% compared to food products compositions that were not admixed with flavor composition peptides. The food product compositions comprising the flavor composition peptides were tasted by a panel of trained tasters and the level of saltiness was compared to the control food products.
The peptides pGlu-Val-Leu (identified as “SE-13”), pGlu-Val-Cys (identified as “UE-30”) and pGlu-Val-Val (identified as “SE-17”) were tested in Pasta Sauce. The control pasta sauce comprised 540 mg sodium (NaCl) in a 125 g serving.

In the case of [pGlu]-Val [SE-14], the “Astringent, after-expectoration perception” value ([1]; 0.1 ppb in 0.2% NaCl) is reported as 0.0, the “Bitter, after-expectoration perception” value ([1]; 0.1 ppb in 0.2% NaCl) is reported as 0.0 and the “Flinty/Mineral, after-expectoration perception” value ([1]; 0.1 ppb in 0.2% NaCl) is reported as 1.1. The “Metallic, after-expectoration perception” value ([1]; 0.1 ppb in 0.2% NaCl) was 0.3, the “Numbing, after-expectoration perception” value ([1]; 0.1 ppb in 0.2% NaCl) was 0.0 and the “Salt, after-expectoration perception (mean salt perception after expectoration)” value (shortened to “Salt, after-expectoration perception”) ([1]; 0.1 ppb in 0.2% NaCl) was 6.7. For the same substance, the “Sour, after-expectoration perception” value ([1]; 0.1 ppb in 0.2% NaCl) was 0.0, the “Sweet, after-expectoration perception” value ([1]; 0.1 ppb in 0.2% NaCl) was 0.0 and the “Level of the aromatics, basic tastes and chemical feeling factors after expectoration with increasing concentration” value ([1]; 0.1 to 40.0/50.0 ppb) was “do not increase”. The “Salt perception after expectoration as the concentration increases” value ([1]; 0.1 to 40.0/50.0 ppb in 0.2% NaCl) was “increases slightly; also recorded: slight increase”, the “Astringent, after-expectoration perception” value ([1]; 0.5 ppb in 0.2% NaCl) was 0.1 and the “Bitter, after-expectoration perception” value ([1]; 0.5 ppb in 0.2% NaCl) was 0.0. For the same substance, the “Flinty/Mineral, after-expectoration perception” value ([1]; 0.5 ppb in 0.2% NaCl) was 1.0, the “Metallic, after-expectoration perception” value ([1]; 0.5 ppb in 0.2% NaCl) was 0.1 and the “Numbing, after-expectoration perception” value ([1]; 0.5 ppb in 0.2% NaCl) was 0.0. For the same substance, the “Salt, after-expectoration perception” value ([1]; 0.5 ppb in 0.2% NaCl) was 7.0, the “Sour, after-expectoration perception” value ([1]; 0.5 ppb in 0.2% NaCl) was 0.0 and the “Sweet, after-expectoration perception” value ([1]; 0.5 ppb in 0.2% NaCl) was 0.0. For the same substance, the “Astringent, after-expectoration perception” value ([1]; 1.0 ppb in 0.2% NaCl) was 0.1, the “Bitter, after-expectoration perception” value ([1]; 1.0 ppb in 0.2% NaCl) was 0.0 and the “Flinty/Mineral, after-expectoration perception” value ([1]; 1.0 ppb in 0.2% NaCl) was 0.5. For the same substance, the “Metallic, after-expectoration perception” value ([1]; 1.0 ppb in 0.2% NaCl) was 0.1, the “Numbing, after-expectoration perception” value ([1]; 1.0 ppb in 0.2% NaCl) was 0.0 and the “Salt, after-expectoration perception” value ([1]; 1.0 ppb in 0.2% NaCl) was 7.0. The “Sour, after-expectoration perception” value ([1]; 1.0 ppb in 0.2% NaCl) was 0.0, the “Sweet, after-expectoration perception” value ([1]; 1.0 ppb in 0.2% NaCl) was 0.0 and the “Astringent, after-expectoration perception” value ([1]; 10.0 ppb in 0.2% NaCl) was 0.0. For the same substance, the “Bitter, after-expectoration perception” value ([1]; 10.0 ppb in 0.2% NaCl) was 0.0, the “Flinty/Mineral, after-expectoration perception” value ([1]; 10.0 ppb in 0.2% NaCl) was 1.0 and the “Metallic, after-expectoration perception” value ([1]; 10.0 ppb in 0.2% NaCl) was 0.2. The “Numbing, after-expectoration perception” value ([1]; 10.0 ppb in 0.2% NaCl) was 0.0, the “Salt, after-expectoration perception” value ([1]; 10.0 ppb in 0.2% NaCl) was 7.3 and the “Sour, after-expectoration perception” value ([1]; 10.0 ppb in 0.2% NaCl) was 0.0. For the same substance, the “Sweet, after-expectoration perception” value ([1]; 10.0 ppb in 0.2% NaCl) was 0.0, the “Astringent, after-expectoration perception” value ([1]; 50.0 ppb in 0.2% NaCl) was 0.1 and the “Bitter, after-expectoration perception” value ([1]; 50.0 ppb in 0.2% NaCl) was 0.0. The “Flinty/Mineral, after-expectoration perception” value ([1]; 50.0 ppb in 0.2% NaCl) was 0.6, the “Metallic, after-expectoration perception” value ([1]; 50.0 ppb in 0.2% NaCl) was 0.1 and the “Numbing, after-expectoration perception” value ([1]; 50.0 ppb in 0.2% NaCl) was 0.0. For the same substance, the “Salt, after-expectoration perception” value ([1]; 50.0 ppb in 0.2% NaCl) was 8.0, the “Sour, after-expectoration perception” value ([1]; 50.0 ppb in 0.2% NaCl) was 0.0 and the “Sweet, after-expectoration perception” value ([1]; 50.0 ppb in 0.2% NaCl) was 0.0. The “Umami like swelling of lips and tongue, after expectoration” value ([1]; all levels) was “Panelists also experience Umami like swelling of lips and tongue” and the “Salt perception from in-mouth to after expectoration” value ([1]; all samples, 0.1 to 40.0/50.0 ppb) was “increases after expectoration (from in-mouth) in all samples; also recorded: noticeable increase”.
[pGlu]-Val-Cys [UE-30] was tested, and the Off-taste [2] was “had a metallic taste”.
